Values quoted from earlier work, collected in US20040259937A1, “Hydroxycitric acid complex metal salts, composition, and methods” (INDFRAG LIMITED, priority 2003, published 2004).

Conditions: converted to the lactone form during processing

O=C(O)CC(O)(C(=O)O)C(O)C(=O)O (single isomer, unassigned; (-)) [(−)hydroxycitric acid]
stability of pure free acid: not stable
